From ChEMBL document CHEMBL3885881, “DrugMatrix”

Species on record: Rattus norvegicus
Test: DrugMatrix - Regimen: Daily Repeat
Format: toxicity, organism-based, Sprague-Dawley
Design: regimen Daily Repeat, gender Male, age 6-8 weeks
Conditions: in vivo, po, 62 mg/kg, route oral GAVAGE, dose level High, […]; for ABSOLUTE BASOPHIL / ABSOLUTE EOSINOPHIL / ABSOLUTE LYMPHOCYTE / ABSOLUTE MONOCYTE / ABSOLUTE SEGMENTED NEUTROPHIL / BASOPHIL / EOSINOPHIL / ERYTHROCYTE COUNT / HEMATOCRIT / HEMOGLOBIN / LEUKOCYTE COUNT / LYMPHOCYTE / MEAN CORPUSCULAR HEMOGLOBIN / MEAN CORPUSCULAR HEMOGLOBIN CONCENTRATION / MEAN CORPUSCULAR VOLUME / MONOCYTE / NEUTROPHIL / NUCLEATED RED BLOOD CELLS / PLATELET COUNT: tissue Blood; for ALANINE AMINOTRANSFERASE / ALBUMIN / ALKALINE PHOSPHATASE / ASPARTATE AMINOTRANSFERASE / BLOOD UREA NITROGEN / CARBON DIOXIDE / CHLORIDE / CHOLESTEROL / CREATINE PHOSPHOKINASE / CREATININE / GLUCOSE / LACTATE DEHYDROGENASE / LIPASE / PHOSPHORUS / POTASSIUM / SODIUM / TOTAL BILIRUBIN / TOTAL PROTEIN / URIC ACID: tissue Plasma

CCCSc1ccc2nc(NC(=O)OC)[nH]c2c1 [ALBENDAZOLE]
ABSOLUTE BASOPHIL (72 h, time 3 day): 0 CELLS/uL | ABSOLUTE EOSINOPHIL (72 h, time 3 day): 0 CELLS/uL | ABSOLUTE LYMPHOCYTE (72 h, time 3 day): 10254.67 CELLS/uL | ABSOLUTE MONOCYTE (72 h, time 3 day): 0 CELLS/uL | ABSOLUTE SEGMENTED NEUTROPHIL (72 h, time 3 day): 712 CELLS/uL | BASOPHIL (72 h, time 3 day): 0% | EOSINOPHIL (72 h, time 3 day): 0% | ERYTHROCYTE COUNT (72 h, time 3 day): 5.64 x10E6/uL | HEMATOCRIT (72 h, time 3 day): 34.47% | HEMOGLOBIN (72 h, time 3 day): 13.47 G/DL | LEUKOCYTE COUNT (72 h, time 3 day): 10.97 x10E3/uL | LYMPHOCYTE (72 h, time 3 day): 94% | MEAN CORPUSCULAR HEMOGLOBIN (72 h, time 3 day): 24 pg | MEAN CORPUSCULAR HEMOGLOBIN CONCENTRATION (72 h, time 3 day): 39.13 G/DL | MEAN CORPUSCULAR VOLUME (72 h, time 3 day): 61.27 fL | MONOCYTE (72 h, time 3 day): 0% | NEUTROPHIL (72 h, time 3 day): 6% | NUCLEATED RED BLOOD CELLS (72 h, time 3 day): 0 /100WBC | PLATELET COUNT (72 h, time 3 day): 1007.33 x10E3/uL | ALANINE AMINOTRANSFERASE (72 h, time 3 day): 44 u/L | ALBUMIN (72 h, time 3 day): 4.13 G/DL | ALKALINE PHOSPHATASE (72 h, time 3 day): 381 u/L | ASPARTATE AMINOTRANSFERASE (72 h, time 3 day): 99.67 u/L | BLOOD UREA NITROGEN (72 h, time 3 day): 11 mg/dL | CARBON DIOXIDE (72 h, time 3 day): 27.33 mmol/L | CHLORIDE (72 h, time 3 day): 101.33 MEQ/L | CHOLESTEROL (72 h, time 3 day): 99 mg/dL | CREATINE PHOSPHOKINASE (72 h, time 3 day): 278 u/L | CREATININE (72 h, time 3 day): 0.13 mg/dL | GLUCOSE (72 h, time 3 day): 161.33 mg/dL | LACTATE DEHYDROGENASE (72 h, time 3 day): 198.67 u/L | LIPASE (72 h, time 3 day): 11.67 u/L | PHOSPHORUS (72 h, time 3 day): 10.53 mg/dL | POTASSIUM (72 h, time 3 day): 5.98 MEQ/L | SODIUM (72 h, time 3 day): 141.53 MEQ/L | TOTAL BILIRUBIN (72 h, time 3 day): 0.17 mg/dL | TOTAL PROTEIN (72 h, time 3 day): 5.8 G/DL | URIC ACID (72 h, time 3 day): 1.43 mg/dL | ABSOLUTE BASOPHIL (120 h, time 5 day): 0 CELLS/uL | ABSOLUTE EOSINOPHIL (120 h, time 5 day): 0 CELLS/uL | ABSOLUTE LYMPHOCYTE (120 h, time 5 day): 7019.67 CELLS/uL | ABSOLUTE MONOCYTE (120 h, time 5 day): 23.67 CELLS/uL | ABSOLUTE SEGMENTED NEUTROPHIL (120 h, time 5 day): 190 CELLS/uL | BASOPHIL (120 h, time 5 day): 0% | EOSINOPHIL (120 h, time 5 day): 0% | ERYTHROCYTE COUNT (120 h, time 5 day): 5.03 x10E6/uL | HEMATOCRIT (120 h, time 5 day): 31% | HEMOGLOBIN (120 h, time 5 day): 12.5 G/DL | LEUKOCYTE COUNT (120 h, time 5 day): 7.23 x10E3/uL | LYMPHOCYTE (120 h, time 5 day): 97% | MEAN CORPUSCULAR HEMOGLOBIN (120 h, time 5 day): 24.9 pg | MEAN CORPUSCULAR HEMOGLOBIN CONCENTRATION (120 h, time 5 day): 40.33 G/DL | MEAN CORPUSCULAR VOLUME (120 h, time 5 day): 61.77 fL | MONOCYTE (120 h, time 5 day): 0.33% | NEUTROPHIL (120 h, time 5 day): 2.67% | NUCLEATED RED BLOOD CELLS (120 h, time 5 day): 0 /100WBC | PLATELET COUNT (120 h, time 5 day): 1425 x10E3/uL | ALANINE AMINOTRANSFERASE (120 h, time 5 day): 29.33 u/L | ALBUMIN (120 h, time 5 day): 4.03 G/DL | ALKALINE PHOSPHATASE (120 h, time 5 day): 247.67 u/L | ASPARTATE AMINOTRANSFERASE (120 h, time 5 day): 66.33 u/L | BLOOD UREA NITROGEN (120 h, time 5 day): 12.33 mg/dL | CARBON DIOXIDE (120 h, time 5 day): 24.33 mmol/L | CHLORIDE (120 h, time 5 day): 101.33 MEQ/L | CHOLESTEROL (120 h, time 5 day): 90.67 mg/dL | CREATINE PHOSPHOKINASE (120 h, time 5 day): 237.67 u/L | CREATININE (120 h, time 5 day): 0.11 mg/dL | GLUCOSE (120 h, time 5 day): 141.33 mg/dL | LACTATE DEHYDROGENASE (120 h, time 5 day): 106.33 u/L | LIPASE (120 h, time 5 day): 11 u/L | PHOSPHORUS (120 h, time 5 day): 11.33 mg/dL | POTASSIUM (120 h, time 5 day): 6.31 MEQ/L | SODIUM (120 h, time 5 day): 141.93 MEQ/L | TOTAL BILIRUBIN (120 h, time 5 day): 0.27 mg/dL | TOTAL PROTEIN (120 h, time 5 day): 5.37 G/DL | URIC ACID (120 h, time 5 day): 1.77 mg/dL
